Experimental data taken from US4559323A, “A41030 Antibiotics” (Eli Lilly and Company, priority 1984, dated 1985).
Values after ≈ are worked out from the molar mass of the structure shown. Where two headings read alike, the source gives them in different places.

Tests used:
[1] = tested on: Clostridium septicum; experiment: Agar-dilution MIC (anaerobes); assay type: cell-based; details: Table 14; Clostridium septicum 1128
[2] = tested on: Peptococcus prevoti; experiment: Agar-dilution MIC (anaerobes); assay type: cell-based
[3] = tested on: S. pyogenes; experiment: In vivo oral activity against S. pyogenes in mice
[4] = tested on: Fusobacterium symbiosum; experiment: Agar-dilution MIC (anaerobes); assay type: cell-based; details: Table 14; Fusobacterium symbiosum 1470
[5] = tested on: Clostridium perfringens; assay type: cell-based; details: Table 14; Clostridium perfringens 81
[6] = Solubility in solvents; assay type: physicochemical; details: solvents as named
From the text: The seven antibiotic factors are recovered from the fermentation and are obtained as a mixture, the A41030 complex. It will be recognized that the ratio of the factors in the A41030 complex will vary, depending upon the fermentation conditions used. The individual factors […], and G are separated and isolated as individual compounds, as hereinafter described.

[7] = tested on: Bacteroides vulgatis; experiment: Agar-dilution MIC (anaerobes); assay type: cell-based; details: Table 14; Bacteroides vulgatis 1211
[8] = Electrometric titration (pKa); assay type: physicochemical; details: electrometric titration in 66% dimethylformamide in water
[9] = tested on: Bacteroides corrodens; experiment: Agar-dilution MIC (anaerobes); assay type: cell-based; details: Table 14; Bacteroides corrodens 1874
[10] = tested on: Clostridium difficile; assay type: cell-based; details: Table 16
From the text: The A41030 antibiotic factors A, B, C, D, E, F, and G, are also active against a number of strains of Clostridium difficile, as determined by the agar-dilution method.

[11] = tested on: Bacteroides fragilis; experiment: Agar-dilution MIC (anaerobes); assay type: cell-based
From the text: (§1) The agar-dilution procedure described by the International Collaborative study (ICS) group was used to determine the minimum inhibitory concentrations (MIC's).

[12] = tested on: Peptostreptococcus anaerobius; experiment: Agar-dilution MIC (anaerobes); assay type: cell-based
[13] = tested on: Fusobacterium necrophorum; experiment: Agar-dilution MIC (anaerobes); assay type: cell-based; details: Table 14; Fusobacterium necrophorum 6054A
[14] = tested on: Salmonella typhi; experiment: Agar-dilution MIC; assay type: cell-based; details: Table 17, 24 hours
[15] = tested on: Bacteroides corrodens; experiment: Agar-dilution MIC (anaerobes); assay type: cell-based; details: Table 12; 24-hour; B. corrodens 1874
From the text: (§2) The A41030 antibiotics, factors A, B, and C, are active against a genus of anaerobic bacteria identified as Bacteroides sp., the 24-hour MIC values being determined by the agar-dilution method, and are set forth in Table 12, which follows.

[16] = tested on: Bacteroides vulgatis; experiment: Agar-dilution MIC (anaerobes); assay type: cell-based; details: Table 12; 24-hour; B. vulgatis 1563
From the text: as §2

[17] = tested on: Pc. constellatus; experiment: Agar-dilution MIC (anaerobes); assay type: cell-based, Peptococcus constellatus; details: Table 15; Pc. constellatus 1468
Procedure: (§3) The MIC values were determined by the agar-dilution method, and are recorded in Table 15, which follows.

[18] = tested on: Peptostreptococcus intermedius; experiment: Agar-dilution MIC (anaerobes); assay type: cell-based
[19] = tested on: Streptococcus pyogenes; experiment: Agar-dilution MIC; assay type: cell-based
From the text: as §1

[20] = tested on: Streptococcus sp. (Group D); experiment: Agar-dilution MIC; assay type: cell-based
From the text: as §1

[21] = tested on: B. thetaiotaomicron; assay type: cell-based
From the text: as §1

[22] = tested on: Peptococcus asaccharolyticus; experiment: Agar-dilution MIC (anaerobes); assay type: cell-based; details: Table 15
Procedure: as §3

[23] = tested on: Clostridium difficile; assay type: cell-based; details: Table 14; Clostridium difficile 2994

Compound: NC1C(=O)NC2Cc3ccc(c(Cl)c3)Oc3cc4cc(c3O)Oc3ccc(cc3Cl)C(O)C3NC(=O)C(NC(=O)C4NC(=O)C(NC2=O)c2cc(O)cc(c2)Oc2cc1ccc2O)c1cc(Cl)c(O)c(c1)-c1c(O)cc(O)cc1C(C(=O)O)NC3=O (stereo not shown) [A41030 factor A]
- MIC [1]: 2 µg/mL (≈ 1.62 µM)
- MIC ([2]; Table 14, Peptococcus prevoti 1281): ≤ 0.25 µg/mL
- MIC ([2]; Table 15, Pc. prevoti 1281): 0.5 µg/mL (≈ 0.405 µM)
- MIC ([2]; Table 15, Pc. prevoti 1293): 1.0 µg/mL (≈ 0.811 µM)
- MIC ([2]; Table 15, Pc. prevoti 1407): 1.0 µg/mL (≈ 0.811 µM)
- in vivo oral activity [3]: > 300 mg./kg.X2
- MIC [4]: 1.0 µg/mL (≈ 0.811 µM)
- MIC [5]: 0.5 µg/mL (≈ 0.405 µM)
- Solubility [6]: soluble in alcohol-water mixtures, in dimethylsulfoxide, in dimethylformamide, in dimethylsulfoxide-water mixtures, in dimethylformamide-water mixtures, in dilute aqueous acid, and in dilute aqueous base
- MIC [7]: 32 µg/mL (≈ 25.9 µM)
- pKa, first titratable group [8]: about 5.53
- pKa, second titratable group [8]: ~7.60
- pKa, third titratable group [8]: ~10.37
- MIC [9]: 64 µg/mL (≈ 51.9 µM)
- MIC ([10]; C. difficile 78): 1.0 µg/mL (≈ 0.811 µM)
- MIC ([10]; C. difficile 107B): 1.0 µg/mL (≈ 0.811 µM)
- MIC ([10]; C. difficile 111F): 1.0 µg/mL (≈ 0.811 µM)
- MIC ([10]; C. difficile 1153): 1.0 µg/mL (≈ 0.811 µM)
- MIC ([10]; C. difficile 2634): 1.0 µg/mL (≈ 0.811 µM)
- MIC ([10]; C. difficile 3424-5B): 1.0 µg/mL (≈ 0.811 µM)
- MIC ([10]; C. difficile 3816): 1.0 µg/mL (≈ 0.811 µM)
- MIC ([10]; C. difficile 3950): 1.0 µg/mL (≈ 0.811 µM)
- MIC ([10]; C. difficile 6890): 1.0 µg/mL (≈ 0.811 µM)
- MIC ([10]; C. difficile 8484): 1.0 µg/mL (≈ 0.811 µM)
- MIC ([10]; C. difficile A-194): 1.0 µg/mL (≈ 0.811 µM)
- MIC ([10]; C. difficile A-195): 1.0 µg/mL (≈ 0.811 µM)
- MIC ([10]; C. difficile A-196): 1.0 µg/mL (≈ 0.811 µM)
- MIC ([10]; C. difficile A-279): 1.0 µg/mL (≈ 0.811 µM)
- MIC ([10]; C. difficile A-280): 1.0 µg/mL (≈ 0.811 µM)
- MIC ([10]; C. difficile A-281): 1.0 µg/mL (≈ 0.811 µM)
- MIC ([10]; C. difficile WAL-2112): 1.0 µg/mL (≈ 0.811 µM)
- MIC ([10]; C. difficile WAL-3657): 1.0 µg/mL (≈ 0.811 µM)
- MIC ([10]; C. difficile WAL-4268): 1.0 µg/mL (≈ 0.811 µM)
- MIC ([11]; Table 12, 24-hour, B. fragilis 2): 64 µg/mL (≈ 51.9 µM)
- MIC ([11]; Table 12, 24-hour, B. fragilis 9): 64 µg/mL (≈ 51.9 µM)
- MIC ([11]; Table 12, 24-hour, B. fragilis 103): 32 µg/mL (≈ 25.9 µM)
- MIC ([11]; Table 12, 24-hour, B. fragilis 104): 32 µg/mL (≈ 25.9 µM)
- MIC ([11]; Table 12, 24-hour, B. fragilis 106): 64 µg/mL (≈ 51.9 µM)
- MIC ([11]; Table 12, 24-hour, B. fragilis 107): 32 µg/mL (≈ 25.9 µM)
- MIC ([11]; Table 12, 24-hour, B. fragilis 108): 32 µg/mL (≈ 25.9 µM)
- MIC ([11]; Table 12, 24-hour, B. fragilis 110): 64 µg/mL (≈ 51.9 µM)
- MIC ([11]; Table 12, 24-hour, B. fragilis 111): 32 µg/mL (≈ 25.9 µM)
- MIC ([11]; Table 12, 24-hour, B. fragilis 112): 64 µg/mL (≈ 51.9 µM)
- MIC ([11]; Table 12, 24-hour, B. fragilis 113): 32 µg/mL (≈ 25.9 µM)
- MIC ([11]; Table 12, 24-hour, B. fragilis 1451): 64 µg/mL (≈ 51.9 µM)
- MIC ([11]; Table 12, 24-hour, B. fragilis 1470): 64 µg/mL (≈ 51.9 µM)
- MIC ([11]; Table 12, 24-hour, B. fragilis 1877): 32 µg/mL (≈ 25.9 µM)
- MIC ([11]; Table 12, 24-hour, B. fragilis 9032): 64 µg/mL (≈ 51.9 µM)
- MIC ([11]; Table 14, Bacteroides fragilis 111): 128 µg/mL (≈ 104 µM)
- MIC ([11]; Table 14, Bacteroides fragilis 1877): 32 µg/mL (≈ 25.9 µM)
- MIC ([11]; Table 14, Bacteroides fragilis 1936B): 64 µg/mL (≈ 51.9 µM)
- MIC ([12]; Table 14, Peptostreptococcus anaerobius 1428): ≤ 0.25 µg/mL
- MIC ([12]; Table 15, Ps. anaerobius 8): 0.5 µg/mL (≈ 0.405 µM)
- MIC ([12]; Table 15, Ps. anaerobius 52): 0.5 µg/mL (≈ 0.405 µM)
- MIC ([12]; Table 15, Ps. anaerobius 59): 0.5 µg/mL (≈ 0.405 µM)
- MIC ([12]; Table 15, Ps. anaerobius 1418): ≤ 0.03 µg/mL
- MIC ([12]; Table 15, Ps. anaerobius 1428): 0.5 µg/mL (≈ 0.405 µM)
- MIC ([12]; Table 15, Ps. anaerobius 1451): 0.5 µg/mL (≈ 0.405 µM)
- MIC ([12]; Table 15, Ps. anaerobius 1477): 0.5 µg/mL (≈ 0.405 µM)
- MIC [13]: 8 µg/mL (≈ 6.49 µM)
- MIC ([14]; Salmonella typhi 1335): > 128 µg/mL
- MIC ([14]; Salmonella typhi X514): > 128 µg/mL
- MIC [15]: 32 µg/mL (≈ 25.9 µM)
- MIC [16]: 32 µg/mL (≈ 25.9 µM)
- MIC [17]: 0.5 µg/mL (≈ 0.405 µM)
- MIC ([18]; Table 14, Peptostreptococcus intermedius 1264): 1.0 µg/mL (≈ 0.811 µM)
- MIC ([18]; Table 15, Ps. intermedius 1264): ≤ 0.03 µg/mL
- MIC ([18]; Table 15, Ps. intermedius 1524): 0.5 µg/mL (≈ 0.405 µM)
- MIC ([18]; Table 15, Ps. intermedius 1624): 1.0 µg/mL (≈ 0.811 µM)
- MIC ([19]; Table 11, S. pyogenes 9943): 0.25 µg/mL (≈ 0.203 µM)
- MIC ([19]; Table 11, S. pyogenes 10389): 0.25 µg/mL (≈ 0.203 µM)
- MIC ([19]; Table 11, S. pyogenes 12344): 0.5 µg/mL (≈ 0.405 µM)
- MIC ([19]; Table 11, S. pyogenes C203): 0.25 µg/mL (≈ 0.203 µM)
- MIC ([19]; Table 11, S. pyogenes M-6517): 0.25 µg/mL (≈ 0.203 µM)
- MIC ([19]; Table 17, 24 hours, Streptococcus pyogenes C203): 0.5 µg/mL (≈ 0.405 µM)
- MIC ([19]; Table 18, 24 hours, Streptococcus pyogenes C203): 0.25 µg/mL (≈ 0.203 µM)
- MIC ([20]; Table 11, Streptococcus sp. (Group D) 238): 0.25 µg/mL (≈ 0.203 µM)
- MIC ([20]; Table 11, Streptococcus sp. (Group D) 282): 0.25 µg/mL (≈ 0.203 µM)
- MIC ([20]; Table 11, Streptococcus sp. (Group D) 9901): 0.25 µg/mL (≈ 0.203 µM)
- MIC ([20]; Table 11, Streptococcus sp. (Group D) 12253F): 0.25 µg/mL (≈ 0.203 µM)
- MIC ([20]; Table 11, Streptococcus sp. (Group D) Guze): 0.25 µg/mL (≈ 0.203 µM)
- MIC ([20]; Table 17, 24 hours, Streptococcus sp. Group D 9960): 2 µg/mL (≈ 1.62 µM)
- MIC ([20]; Table 17, 24 hours, Streptococcus sp. Group D X66): 1 µg/mL (≈ 0.811 µM)
- MIC ([20]; Table 18, 24 hours, Streptococcus sp. Group D 2041): 0.5 µg/mL (≈ 0.405 µM)
- MIC ([20]; Table 18, 24 hours, Streptococcus sp. Group D 2058): 0.5 µg/mL (≈ 0.405 µM)
- MIC ([20]; Table 18, 24 hours, Streptococcus sp. Group D 8043): 0.25 µg/mL (≈ 0.203 µM)
- MIC ([20]; Table 18, 24 hours, Streptococcus sp. Group D 9901): 1 µg/mL (≈ 0.811 µM)
- MIC ([20]; Table 18, 24 hours, Streptococcus sp. Group D 9960): 0.5 µg/mL (≈ 0.405 µM)
- MIC ([20]; Table 18, 24 hours, Streptococcus sp. Group D 12253F): 0.25 µg/mL (≈ 0.203 µM)
- MIC ([20]; Table 18, 24 hours, Streptococcus sp. Group D Mx161): 0.25 µg/mL (≈ 0.203 µM)
- MIC ([20]; Table 18, 24 hours, Streptococcus sp. Group D X66): 0.25 µg/mL (≈ 0.203 µM)
- MIC ([21]; Table 12, 24-hour, B. thetaiotaomicron 1438): 64 µg/mL (≈ 51.9 µM)
- MIC ([21]; Table 12, 24-hour, B. thetaiotaomicron 1900A): 128 µg/mL (≈ 104 µM)
- MIC ([21]; Table 14, Bacteroides thetalotaomicron 1438): 64 µg/mL (≈ 51.9 µM)
- MIC ([22]; Pc. asaccharolyticus 1302): ≤ 0.03 µg/mL
- MIC ([22]; Pc. asaccharolyticus 1344): 0.5 µg/mL (≈ 0.405 µM)
- MIC [23]: 32 µg/mL (≈ 25.9 µM)
